Reference: patent US12699094B2, “Fluorescent biosensor for acetyl coenzyme A” (UNIVERSITY OF UTAH RESEARCH FOUNDATION, priority 2023, dated 2026)

Legend:
[1] = test system: E. coli (Rosetta DE3 cells)
Procedure: Plate Reader Refeeding. All assays were done with the BioTek Synergy™ Plate Reader with injectors. All sensors and control proteins were expressed in Rosetta (DE3) cells. PanZ was used as a non-fluorescent control, cpGFP was used as a fluorescent control, and PANcACe was the experimental. Reads were done with excitation 405 nm and 485 nm and emission at 514 nm. Cultures were grown in LB with kanamycin overnight at 37° C. then used to induce new cultures. Cells were grown at 37° C. to an OD600 of 0.6 then induced with 0.5 mM IPTG and grown overnight at 18° C. Cultures were split into 2, 600 μL aliquots and spun at 4000 rpm for 5 minutes.
Glucose Starvation and Refeeding. The supernatant was discarded and pellets were resuspended in 600 μL either starvation buffer (100 mM NaPO4, 2 mM MgCl2, 15 mM (NH4)2SO4+0 mM glucose) or refed buffer (100 mM NaPO4, 2 mM MgCl2, 15 mM (NH4)2SO4+28 mM glucose). 85 μL was added to 3 wells of a 96 well plate for each sample. […] Plates were read for 10 minutes every 30 seconds with 10 seconds of shaking between reads. […] Plates were read for 60 minutes every 30 seconds with 10 seconds of shaking between reads.
2-Deoxyglucose Starvation and Refeeding. […] Plates were read for 10 minutes every 30 seconds with 10 seconds of shaking between reads. […] Plates were read for 60 minutes every 30 seconds with 10 seconds of shaking between reads.

[2] = target: PancAce (PANcACe), PanZ(R69)-GA-cpGFP-GA-(E70)PanZ, SEQ ID NO: 5; E. coli PanZ with cpGFP insertion (Escherichia coli, UniProt P37613, INS69[…]); experiment: Fluorescence titration of PancAce with acetyl-CoA, CoA and propionyl-CoA; format: binding
Procedure: Acetyl-CoA and CoA Titration and Spectrum Scans. Assays were done in 384 well plates with […] final well volume. All sensors and control proteins were diluted to 6 μM in protein storage buffer. Acetyl-CoA and CoA were dissolved in water at a concentration of 60 μM then serial diluted to 30 μM, 15 μM, 6 μM, 3 μM, 0.6 μM, 0.06 μM, and 0.006 μM. Wells were set up in triplicate with 14 μL water, 6 μL assay buffer, and 5 μL sensor. 5 μL of an acetyl-CoA stock or water were added to 1 μM sensor before reading. For Titration curves, plates were read at excitation 485 nm and emission 514 nm. For excitation scans plates were excited from 400 nm to 500 nm at 1 nm increments and emissions were read at […]. For emission scans plates were excited at 485 nm, 427 nm, or 405 nm and emissions were read from 500 nm to 575 nm in 1 nm increments. Triplicates were averaged and plotted for scans and percent difference between no acetyl-CoA and acetyl-CoA wells were calculated for titrations.
Titrations of acetyl-CoA and CoA with PANcACe and cpGFP alone were performed (FIG. 9). […] Since the insertion site of cpGFP is very close to the acetyl-CoA binding site, this effect was not surprising. […] Further, the selectivity of PANcACe for short-chain acyl-CoAs was tested (FIG. 11). […] A propionyl-CoA titration confirmed this apparent affinity difference (FIG. 12). Since saturation was not achieved up to 10 mM propionyl-CoA, it was assumed that the same maximal sensor response would be achieved for propionyl-CoA as for acetyl-CoA.

[3] = target: E. coli PanZ (PanZ-CFP fusion protein), SEQ ID NO: 1 (Escherichia coli, UniProt P37613); experiment: Surface plasmon resonance binding to PanZ-CFP; conditions: SPR
Procedure: Surface Plasmon Resonance. Acetyl-CoA and CoA binding to PanZ-CFP were analyzed via SPR using a MASS-1 instrument (Bruker Daltonics, Billerica, MA). Independent experiments were performed using freshly prepared PanZ-CFP, Acetyl-CoA, and CoA stocks on two separate days (surfaces 1 & 2). HLC200 μM sensor surfaces (Xantec Bioanalytics, Düsseldorf, Germany) were activated with EDC/NHS, and then 250 nM PanZ-CFP ligand was captured on the sensor “Spot B” at 10 μL/minute at 2020 RU (surface 1) and 2360 RU (surface 2). The surface was then blocked with […]. The experimental running buffer was 50 mM Tris pH 7.5, 150 mM NaCl, 0.05% Tween-20 for surface 1 replicates and 200 mM Tris pH 7.5, 150 mM NaCl, 0.05% Tween-20 for surface 2 replicates. Experiments were performed at room temperature with a flowrate of 30 μL/minute. A three-fold dilution series (81-0.33 μM) with 1 minute association and 2 minutes dissociation was run in multiple replicates (at least two for each analyte on each surface). Data were double blanked by subtracting the blank in-line control surface (Spot A) and buffer reference injections. Kinetic binding data were globally fit to the Langmuir model for 1:1 binding for each replicate of concentration series using the Sierra Analyser software (version 3.4.1, Bruker Daltonics, Billerica, MA). […]

[4] = target: PanZ(R69)-GA-cpGFP-GA-(E70)PanZ (PancAce), SEQ ID NO: 5 (Escherichia coli, UniProt P37613, INS69[…]); experiment: Linker screen, fluorescence response to 1 mM acetyl-CoA; format: biochemical, E. coli
Procedure: Linker Length Screen. cpGFP (HTSD1.00) was inserted into 6× histidine tagged PanZ (HTSD1.10) after amino acid R69 with all 16 possible combinations of N- and C-terminal linkers with amino acid sequences GAS, GA, G, no linker using NEBuilder® HiFi DNA Assembly Master Mix (NEB) (HTSD8.00-8.15).
Position and Linker Screen. Assays were done in 96 well plates with 100 μL final well volumes. All sensors and control proteins were diluted to 10 μM in protein storage buffer (50 mM Tris pH 7.5, 150 mM NaCl, 10% glycerol). Acetyl-CoA was dissolved in water at a concentration of 10 mM. A 5× assay buffer was used ([…] pH 7.5, 750 mM NaCl). Wells were set up in triplicate with 60 μL water, 20 μL reaction buffer, and 10 μL sensor. Then either 10 μL of water or 10 μL of acetyl-CoA were added to 1 μM sensor before reading. […] Triplicates were averaged and percent difference between no acetyl-CoA and acetyl-CoA wells were calculated.

[5] = target: PancAce (PANcACe), PanZ(R69)-GA-cpGFP-GA-(E70)PanZ, SEQ ID NO: 5 (Escherichia coli, UniProt P37613, INS69[…]); experiment: Acyl-CoA screen, fluorescence response to 1 mM acyl-CoA; format: biochemical, E. coli; conditions: FIG. 11, n=3
Procedure: Acyl-CoA Screen. Assays were done in 384 well plates with 30 μL final volume. All sensors and control proteins were diluted to 6 μM in protein storage buffer. CoA, acetyl-CoA, propionyl-CoA, butyryl-CoA, malonyl-CoA, and succinyl-CoA were dissolved in water at a concentration of 6 mM. Wells were set up in triplicate with 14 μL water, 6 μL assay buffer, and 5 μL sensor. 5 μL of an acyl-CoA or water were added to 1 μM sensor before reading. Plates were read at excitation 485 nm and emission 514 nm. Triplicates were averaged and percent difference between acyl-CoAs and water were calculated.

## O=CC[C@@H](O)[C@H](O)[C@H](O)CO [2-DG, 2-deoxyglucose]
[1]; PancAce-expressing cells deprived of glucose 3 hours with 28 mM 2-DG, refed 28 mM glucose, monitored 1 hour
  recovery of acetyl-CoA levels (sensor response) upon refeeding: lower recovery of acetyl-CoA levels upon refeeding

## CC(C)(COP(=O)(O)OP(=O)(O)OC[C@H]1O[C@@H](n2cnc3c(N)ncnc32)[C@H](O)[C@@H]1OP(=O)(O)O)[C@@H](O)C(=O)NCCC(=O)NCCS [CoA, coenzyme A]
[2]; FIG. 9, acetyl-CoA or CoA titration
  sensor response: the sensor responds only to acetyl-CoA and not CoA
[2]; interpolation, saturation not achieved for CoA
  CoA concentration required to elicit the same sensor response as 100 μM acetyl-CoA: 10 mM

## CC(=O)O [acetate]
[1]; 280 μM acetate, pre-starved PancAce-expressing cells
  duration of increase in PancAce signal upon feeding of starved cells: about 30 minutes

## CC(=O)SCCNC(=O)CCNC(=O)[C@H](O)C(C)(C)COP(=O)(O)OP(=O)(O)OC[C@H]1O[C@@H](n2cnc3c(N)ncnc32)[C@H](O)[C@@H]1OP(=O)(O)O [acetyl-CoA, acetyl coenzyme A]
[3]
  fold higher affinity for acetyl-CoA versus CoA: 7 fold
[3]; 1:1 Langmuir fit, average ± standard error, room temperature, pH 7.5
  Kd: 1700 ± 200 nM
[2]; FIG. 9
  lower end of detectable acetyl-CoA concentration range: about 10 UM
  upper end of detectable acetyl-CoA concentration range: about 2 mM
[2]; FIG. 12, λex=485, λem=514 nm, n=3-5
  fold higher affinity for acetyl-CoA compared to propionyl-CoA: approximately 2.5 fold
[2]; fluorescence Kd,app vs SPR Kd
  fold lower affinity of PANcACe for acetyl-CoA compared to PanZ: about 150 fold
[2]; λex=485, λem=514 nm
  maximum fluorescence response at saturating acetyl-CoA: ~2 fold
[4]; 1 mM acetyl-CoA, N-GA/C-GA linkers, λex=485, λem=514 nm
  fold-change in fluorescence emission ((F1−F0)/F0): about 0.6 fold
[4]; acetyl-CoA, FIG. 6
  response of GA/GA linker sensor relative to original AS/AS linker: about 2.5 fold

## CCC(=O)SCCNC(=O)CCNC(=O)[C@H](O)C(C)(C)COP(=O)(O)OP(=O)(O)OC[C@H]1O[C@@H](n2cnc3c(N)ncnc32)[C@H](O)[C@@H]1OP(=O)(O)O [propionyl-CoA]
[2]; from fitted Kd values
  fold lower affinity for propionyl-CoA compared to acetyl-CoA: 2.4 fold
[2]; saturation not achieved up to 10 mM, fit assumes same maximal sensor response as for acetyl-CoA
  Kd (estimated): 626000 ± 75000 nM
[5]
  sensor fluorescence response: some response
